Results: patent publication US9090576B2, “2-substituted-p-quinone derivatives for treatment of oxidative stress diseases” (Edison Pharmaceuticals, Inc., priority 2008, dated 2015)

Key:
Format in all cases: cell-based
[1] = system: human dermal fibroblasts from Huntington's patients; assay: Rescue of BSO-stressed fibroblasts from Huntington's patients (screen as Example A); conditions: Fibroblast, BSO-stressed Huntington's fibroblasts (GM 04281), less than about 150 nM, read-out: EC50, protection against Huntington's
Method in brief: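 Coriell Huntington's line GM 04281 plated at 3,000 cells/well and attached overnight at 37 °C. Survival was read by Calcein AM (1.2 μM, 50-70 min, RT) fluorescence at 485/525 nm, giving EC50.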

[2] = system: human dermal fibroblasts from CoQ10 deficient patients; assay: Rescue of BSO-stressed fibroblasts from CoQ10 deficient patients (screen similar to Example A); conditions: Fibroblast, BSO-stressed fibroblasts from CoQ10 deficient patients harboring a CoQ2 mutation, less than about 150 nM, read-out: EC50, protection against CoQ10 deficiency
Experimental: A culture with FRDA fibroblasts was started from a 1 ml vial with approximately 500,000 cells stored in liquid nitrogen. Cells were propagated in 10 cm cell culture dishes by splitting every third day in a ratio of 1:3 until nine plates were available. Once confluent, fibroblasts were harvested. For 54 micro titer plates (96 well-MTP) a total of 14.3 million cells (passage eight) were re-suspended in 480 ml medium, corresponding to 100 μl medium with 3,000 cells/well. The remaining cells were distributed in 10 cm cell culture plates (500,000 cells/plate) for propagation. The plates were incubated overnight at 37° C. in an atmosphere with 95% humidity and 5% CO2 to allow attachment of the cells to the culture plate.
MTP medium (243 μl) was added to a well of the microtiter plate. The test compounds were unfrozen, and 7.5 μl of a 5 mM stock solution was dissolved in the well containing 243 μl medium, resulting in a 150 μM master solution. Serial dilutions from the master solution were made. The period between the single dilution steps was kept as short as possible (generally less than 1 second).
Plates were kept overnight in the cell culture incubator. The next day, 10 μl of a 10 mM BSO solution were added to the wells, resulting in a 1 mM final BSO concentration. Forty-eight hours later, three plates were examined under a phase-contrast microscope to verify that the cells in the 0% control (wells E1-H1) were clearly dead. The medium from all plates was discarded, and the remaining liquid was removed by gently tapping the plate inversed onto a paper towel.
100 μl of PBS containing 1.2 μM Calcein AM were then added to each well. The plates were incubated for 50-70 minutes at room temperature. After that time the PBS was discarded, the plate gently tapped on a paper towel and fluorescence (excitation/emission wavelengths of 485 nm and 525 nm, respectively) was read on a Gemini fluorescence reader. Data was imported into Microsoft Excel (EXCEL is a registered trademark of Microsoft Corporation for a spreadsheet program) and used to calculate the EC50 concentration for each compound.
Compounds of the invention were tested using a screen similar to the one described in Example A, but substituting FRDA cells with cells obtained from CoQ10 deficient patients harboring a CoQ2 mutation. The compounds were tested for their ability to rescue human dermal fibroblasts from CoQ10 deficient patients from oxidative stress.

[3] = system: human dermal fibroblasts from Parkinson's Disease patients; assay: Rescue of BSO-stressed fibroblasts from Parkinson's Disease patients (screen as Example A); conditions: Fibroblast, BSO-stressed Parkinson's Disease fibroblasts (AG20439), less than about 150 nM, read-out: EC50, protection against PD
Method in brief: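 Dermal fibroblasts from a Parkinson's Disease patient (Coriell AG20439) were plated at 3,000 cells/well, attached overnight and pre-incubated overnight with serially diluted compounds (150 μM master solution). Survival was read by 1.2 μM calcein AM (50–70 min, RT, 485/525 nm fluorescence) and converted to EC50.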

[4] = system: human dermal fibroblasts from LHON patients; assay: Rescue of BSO-stressed fibroblasts from LHON patients (screen as Example A); conditions: Fibroblast, BSO-stressed LHON fibroblasts (GM03858), less than about 150 nM, read-out: EC50, protection against LHON
Method in brief: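 LHON patient fibroblasts (Coriell GM03858) at 3,000 cells/well were pre-treated overnight with compounds serially diluted from a 150 μM master solution. Surviving cells were stained with 1.2 μM Calcein AM for 50-70 min at RT and read by fluorescence (485/525 nm), giving EC50.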

[5] = system: Human dermal fibroblasts from Friedreich's Ataxia patients; assay: Rescue of BSO-stressed FRDA fibroblasts (Calcein AM viability); conditions: BSO-stressed FRDA fibroblasts (GM04078), less than about 150 nM, read-out: EC50, protection against FRDA
Method in brief: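 Patient FRDA fibroblasts (GM04078) seeded at 3,000 cells/well, given serially diluted compound from a 150 μM master solution, then stressed next day with 1 mM BSO.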

Measured: EC50

CC1=C(C)C(=O)C(CCCC(=O)Nc2ccc3c(c2)OCO3)=C(C)C1=O [N-(benzo[d][1,3]dioxol-5-yl)-4-(2,4,5-trimethyl-3,6-dioxocyclohexa-1,4-dienyl)butanamide]
< 150 nM: all assays above

CC1=C(C)C(=O)C(CCCC(=O)N(C)Cc2ccccc2)=C(C)C1=O [N-benzyl-N-methyl-4-(2,4,5-trimethyl-3,6-dioxocyclohexa-1,4-dienyl)butanamide]
< 150 nM: all assays above

CC1=C(C)C(=O)C(CCCC(=O)NCCc2ccc(Cl)cc2)=C(C)C1=O [N-(4-chlorophenethyl)-4-(2,4,5-trimethyl-3,6-dioxocyclohexa-1,4-dienyl)butanamide]
< 150 nM: all assays above

CC1=C(C)C(=O)C(CCC(C)(C)C(N)=O)=C(C)C1=O [2,2-dimethyl-4-(2,4,5-trimethyl-3,6-dioxocyclohexa-1,4-dienyl)butanamide]
< 150 nM: all assays above

CC1=C(C)C(=O)C(CCCC(=O)NCCc2ccc(F)cc2)=C(C)C1=O [N-(4-fluorophenethyl)-4-(2,4,5-trimethyl-3,6-dioxocyclohexa-1,4-dienyl)butanamide]
< 150 nM: all assays above

COc1cccc(NC(=O)CCCC2=C(C)C(=O)C(C)=C(C)C2=O)c1 [N-(3-methoxyphenyl)-4-(2,4,5-trimethyl-3,6-dioxocyclohexa-1,4-dienyl)butanamide]
< 150 nM: all assays above

CC1=C(C)C(=O)C(CCCC(=O)NCc2ccccc2Cl)=C(C)C1=O [N-(2-chlorobenzyl)-4-(2,4,5-trimethyl-3,6-dioxocyclohexa-1,4-dienyl)butanamide]
< 150 nM: all assays above

CCN(Cc1ccccc1)C(=O)CCCC1=C(C)C(=O)C(C)=C(C)C1=O [N-benzyl-N-ethyl-4-(2,4,5-trimethyl-3,6-dioxocyclohexa-1,4-dienyl)butanamide]
< 150 nM: all assays above

CC1=C(C)C(=O)C(CCCC(=O)Nc2ccc(F)cc2)=C(C)C1=O [N-(4-fluorophenyl)-4-(2,4,5-trimethyl-3,6-dioxocyclohexa-1,4-dienyl)butanamide]
< 150 nM: all assays above

CC1=C(C)C(=O)C(CCCC(=O)Nc2ccc(C)cc2)=C(C)C1=O [N-p-tolyl-4-(2,4,5-trimethyl-3,6-dioxocyclohexa-1,4-dienyl)butanamide]
< 150 nM: all assays above

CC1=C(C)C(=O)C(CCCC(=O)N(C)c2ccc(Cl)cc2)=C(C)C1=O [N-(4-chlorophenyl)-N-methyl-4-(2,4,5-trimethyl-3,6-dioxocyclohexa-1,4-dienyl)butanamide]
< 150 nM: all assays above

COc1ccc(NC(=O)CCCC2=C(C)C(=O)C(C)=C(C)C2=O)cc1OC [N-(3,4-dimethoxyphenyl)-4-(2,4,5-trimethyl-3,6-dioxocyclohexa-1,4-dienyl)butanamide]
< 150 nM: all assays above

CC1=C(C)C(=O)C(CCCC(=O)NCc2ccc(F)cc2)=C(C)C1=O [N-(4-fluorobenzyl)-4-(2,4,5-trimethyl-3,6-dioxocyclohexa-1,4-dienyl)butanamide]
< 150 nM: all assays above

CC1=C(C)C(=O)C(CCCC(=O)Nc2cccc(Cl)c2)=C(C)C1=O [N-(3-chlorophenyl)-4-(2,4,5-trimethyl-3,6-dioxocyclohexa-1,4-dienyl)butanamide]
< 150 nM: all assays above

CC1=C(C)C(=O)C(CCCC(=O)N2CCc3ccccc32)=C(C)C1=O [2-(4-(indolin-1-yl)-4-oxobutyl)-3,5,6-trimethylcyclohexa-2,5-diene-1,4-dione]
< 150 nM: all assays above

CC1=C(C)C(=O)C(CCCC(=O)Nc2ccc(Cl)cc2N)=C(C)C1=O [N-(2-amino-4-chlorophenyl)-4-(2,4,5-trimethyl-3,6-dioxocyclohexa-1,4-dienyl)butanamide]
< 150 nM: all assays above

COc1ccccc1NC(=O)CCCC1=C(C)C(=O)C(C)=C(C)C1=O [N-(2-methoxyphenyl)-4-(2,4,5-trimethyl-3,6-dioxocyclohexa-1,4-dienyl)butanamide]
< 150 nM: all assays above
